Experimental data: ChEMBL document CHEMBL2203270, “POMA analyses as new efficient bioinformatics' platform to predict and optimise bioactivity of synthesized 3a,4-dihydro-3H-indeno[1,2-c]pyrazole-2-carboxamide/carbothioamide analogues” (Bioorg Med Chem Lett, 2012)
In brackets after ≈: the same amount, converted by molar mass.

How the values were obtained:
[1] = tested on: Human immunodeficiency virus 2; assay: Antiviral activity against HIV-2 ROD infected in MT4 cells assessed as protection against virus-induced cytopathicity relative to control; assay type: functional; details: Human immunodeficiency virus 2, ISOLATE ROD
[2] = Cytotoxicity against mock-infected human MT4 cells assessed as decrease in cell viability by MTT assay; assay type: cell-based
[3] = tested on: Human immunodeficiency virus 1; assay: Antiviral activity against HIV-1 3B infected in MT4 cells assessed as protection against virus-induced cytopathicity relative to control; assay type: functional; details: Human immunodeficiency virus 1, 3B
[4] = tested on: Human immunodeficiency virus 1; assay: Antiviral activity against HIV-1 3B infected in MT4 cells assessed as inhibition of virus-induced cytopathicity; assay type: functional, organism-based; details: Human immunodeficiency virus 1, 3B
[5] = tested on: Human immunodeficiency virus 2; assay: Antiviral activity against HIV-2 ROD infected in MT4 cells assessed as inhibition of virus-induced cytopathicity; assay type: functional, organism-based; details: Human immunodeficiency virus 2, ISOLATE ROD
Aspergillus niger = assay: Antimicrobial activity against Aspergillus niger NCIM 1196 by broth dilution technique; assay type: functional
Candida albicans = assay: Antimicrobial activity against Candida albicans NCIM 3471 by broth dilution technique; assay type: functional
Pseudomonas aeruginosa = assay: Antimicrobial activity against Pseudomonas aeruginosa ATCC 10145 by broth dilution technique; assay type: functional
Escherichia coli = assay: Antimicrobial activity against Escherichia coli NCIM 5051 by broth dilution technique; assay type: functional
Bacillus subtilis = assay: Antimicrobial activity against Bacillus subtilis NCIM 2439 by broth dilution technique; assay type: functional
Staphylococcus aureus = assay: Antimicrobial activity against Staphylococcus aureus NCIM 2079 by broth dilution technique; assay type: functional

Row | Compound | Emax [1] [%] | CC50 [2] [µM] | Emax [3] [%] | IC50 [4] [µM] | IC50 [5] [µM] | MFC (Aspergillus niger) [µg/mL] | MIC (Aspergillus niger) [µg/mL] | MFC (Candida albicans) [µg/mL] | MIC (Candida albicans) [µg/mL] | MBC (Pseudomonas aeruginosa) [µg/mL] | MIC (Pseudomonas aeruginosa) [µg/mL] | MBC (Escherichia coli) [µg/mL] | MIC (Escherichia coli) [µg/mL] | MBC (Bacillus subtilis) [µg/mL] | MIC (Bacillus subtilis) [µg/mL] | MBC (Staphylococcus aureus) [µg/mL] | MIC (Staphylococcus aureus) [µg/mL]
1 | COc1cc2c(cc1OC)C1=NN(C(=O)Nc3ccc(Br)cc3)C(c3ccccc3Cl)C1C2 (centres undefined) | 2 | 11.5 | 2 | > 11.5 | > 11.5 | – | – | – | – | – | – | – | – | – | – | – | –
2 | COc1ccc(C2C3Cc4cc(OC)c(OC)cc4C3=NN2C(=O)Nc2ccc(Cl)cc2)cc1OC (centres undefined) | 9 | 106 | 4 | > 106 | > 106 | – | – | – | – | – | – | – | – | – | – | – | –
3 | COc1cc2c(cc1OC)C1=NN(C(N)=O)C(c3ccccc3)C1C2 (centres undefined) | 11 | 259 | 2 | > 259 | > 259 | > 512 | 256 (≈ 759 µM) | > 512 | 128 (≈ 379 µM) | > 512 | 256 (≈ 759 µM) | > 512 | 256 (≈ 759 µM) | > 512 | 256 (≈ 759 µM) | > 512 | 256 (≈ 759 µM)
4 | COc1ccc(C2C3Cc4cc(OC)c(OC)cc4C3=NN2C(=O)Nc2ccc(Br)cc2)cc1OC (centres undefined) | 39 | 150 | 15 | > 150 | > 150 | – | – | – | – | – | – | – | – | – | – | – | –
5 | COc1cc2c(cc1OC)C1=NN(C(=O)Nc3ccc(F)cc3)C(c3ccccc3)C1C2 (centres undefined) | 7 | 68.6 | 3 | > 68.6 | > 68.6 | – | – | – | – | – | – | – | – | – | – | – | –
6 | COc1ccc(C2C3Cc4cc(OC)c(OC)cc4C3=NN2C(=O)Nc2ccc(C)cc2C)cc1OC (centres undefined) | 16 | 145 | 16 | > 145 | > 145 | – | – | – | – | – | – | – | – | – | – | – | –
7 | COc1cc2c(cc1OC)C1=NN(C(=O)Nc3ccc(C)cc3C)C(c3ccc(F)cc3)C1C2 (centres undefined) | 12 | 198 | 4 | > 198 | > 198 | – | – | – | – | – | – | – | – | – | – | – | –
8 | COc1cc2c(cc1OC)C1=NN(C(=O)Nc3ccc(F)cc3)C(c3ccc(F)cc3)C1C2 (centres undefined) | 14 | 119 | 4 | > 119 | > 119 | – | – | – | – | – | – | – | – | – | – | – | –
9 | COc1ccc(C2C3Cc4cc(OC)c(OC)cc4C3=NN2C(=O)Nc2ccc(F)cc2)cc1OC (centres undefined) | 37 | 208 | 11 | > 208 | > 208 | – | – | – | – | – | – | – | – | – | – | – | –
10 | COc1cc2c(cc1OC)C1=NN(C(=O)Nc3ccc(Br)cc3)C(c3ccccc3)C1C2 (centres undefined) | 10 | 86 | 3 | > 86 | > 86 | – | – | – | – | – | – | – | – | – | – | – | –
11 | COc1ccc(C2C3Cc4cc(OC)c(OC)cc4C3=NN2C(=O)Nc2ccc(Br)cc2)cc1 (centres undefined) | 5 | 136 | 3 | > 136 | > 136 | – | – | – | – | – | – | – | – | – | – | – | –
12 | COc1cc2c(cc1OC)C1=NN(C(N)=S)C(c3ccccc3)C1C2 (centres undefined) | 12 | 28.4 | 2 | > 28.4 | > 28.4 | > 512 | 128 (≈ 362 µM) | > 512 | 128 (≈ 362 µM) | > 512 | 256 (≈ 724 µM) | > 512 | 128 (≈ 362 µM) | > 512 | 256 (≈ 724 µM) | > 512 | 256 (≈ 724 µM)
13 | COc1cc2c(cc1OC)C1=NN(C(=O)Nc3ccc(F)cc3)C(c3ccncc3)C1C2 (centres undefined) | 2 | 31.9 | 2 | > 31.9 | > 31.9 | – | – | – | – | – | – | – | – | – | – | – | –
14 | COc1ccc(C2C3Cc4cc(OC)c(OC)cc4C3=NN2C(N)=S)cc1OC (centres undefined) | 11 | 158 | 4 | > 158 | > 158 | 512 (≈ 1240 µM) | 16 (≈ 38.7 µM) | 512 (≈ 1240 µM) | 16 (≈ 38.7 µM) | > 512 | 128 (≈ 310 µM) | > 512 | 64 (≈ 155 µM) | > 512 | 128 (≈ 310 µM) | > 512 | 128 (≈ 310 µM)
15 | COc1cc2c(cc1OC)C1=NN(C(=O)Nc3ccc(Cl)cc3)C(c3ccncc3)C1C2 (centres undefined) | 5 | 4.83 | 4 | > 4.83 | > 4.83 | – | – | – | – | – | – | – | – | – | – | – | –
16 | COc1cc2c(cc1OC)C1=NN(C(=O)Nc3ccc(C)cc3C)C(c3ccccc3)C1C2 (centres undefined) | 7 | 33.4 | 5 | > 33.4 | > 33.4 | – | – | – | – | – | – | – | – | – | – | – | –
17 | COc1ccc(C2C3Cc4cc(OC)c(OC)cc4C3=NN2C(=O)Nc2c(C)cccc2C)cc1OC (centres undefined) | 37 | 182 | 11 | > 182 | > 182 | – | – | – | – | – | – | – | – | – | – | – | –
18 | COc1cc2c(cc1OC)C1=NN(C(=O)Nc3c(C)cccc3C)C(c3ccccc3)C1C2 (centres undefined) | 12 | 211 | 4 | > 211 | > 211 | – | – | – | – | – | – | – | – | – | – | – | –
19 | COc1cc2c(cc1OC)C1=NN(C(=O)Nc3ccc(Br)cc3)C(c3ccncc3)C1C2 (centres undefined) | 1 | 26.5 | 1 | > 26.5 | > 26.5 | – | – | – | – | – | – | – | – | – | – | – | –
20 | COc1cc2c(cc1OC)C1=NN(C(=O)Nc3c(C)cccc3C)C(c3ccccc3Cl)C1C2 (centres undefined) | 9 | 159 | 4 | > 159 | > 159 | – | – | – | – | – | – | – | – | – | – | – | –
21 | COc1ccc(C2C3Cc4cc(OC)c(OC)cc4C3=NN2C(=O)Nc2ccc(F)cc2)cc1 (centres undefined) | 9 | 132 | 7 | > 132 | > 132 | – | – | – | – | – | – | – | – | – | – | – | –
22 | COc1cc2c(cc1OC)C1=NN(C(=O)Nc3ccc(Cl)cc3)C(c3ccccc3)C1C2 (centres undefined) | 19 | 28.4 | 2 | > 28.4 | > 28.4 | – | – | – | – | – | – | – | – | – | – | – | –
23 | COc1cc2c(cc1OC)C1=NN(C(=O)Nc3ccc(C)cc3C)C(c3ccncc3)C1C2 (centres undefined) | 4 | 25.2 | 1 | > 25.2 | > 25.2 | – | – | – | – | – | – | – | – | – | – | – | –
24 | COc1cc2c(cc1OC)C1=NN(C(=O)Nc3ccc(Br)cc3)C(c3ccc(F)cc3)C1C2 (centres undefined) | 16 | 108 | 8 | > 108 | > 108 | – | – | – | – | – | – | – | – | – | – | – | –
25 | Cc1cn([C@H]2C[C@H](N=[N+]=[N-])[C@@H](CO)O2)c(=O)[nH]c1=O [ZIDOVUDINE] | 66 | > 93.5 | 90 | – | – | – | – | – | – | – | – | – | – | – | – | – | –
26 | COc1cc2c(cc1OC)C1=NN(C(=O)Nc3ccc(C)cc3C)C(c3ccccc3Cl)C1C2 (centres undefined) | 5 | 11 | 1 | > 11 | > 11 | – | – | – | – | – | – | – | – | – | – | – | –
27 | COc1ccc(C2C3Cc4cc(OC)c(OC)cc4C3=NN2C(=O)Nc2c(C)cccc2C)cc1 (centres undefined) | 6 | 169 | 5 | > 169 | > 169 | – | – | – | – | – | – | – | – | – | – | – | –
28 | COc1cc2c(cc1OC)C1=NN(C(=O)Nc3ccc(F)cc3)C(c3ccccc3Cl)C1C2 (centres undefined) | 1 | 9.09 | 2 | > 9.09 | > 9.09 | – | – | – | – | – | – | – | – | – | – | – | –
29 | COc1cc2c(cc1OC)C1=NN(C(=O)Nc3ccc(F)c(Cl)c3)C(c3ccncc3)C1C2 (centres undefined) | 2 | 29.5 | 4 | > 29.5 | > 29.5 | – | – | – | – | – | – | – | – | – | – | – | –
30 | COc1cc2c(cc1OC)C1=NN(C(=O)Nc3c(C)cccc3C)C(c3ccc(F)cc3)C1C2 (centres undefined) | 4 | 9.36 | 3 | > 9.36 | > 9.36 | – | – | – | – | – | – | – | – | – | – | – | –
